{
  "source": "patent US4201784A",
  "about": "“Substituted 2-[2'-(5\"-nitrofuryl-2\")vinyl-and 4'-(5\"-nitrofuryl-2\"-1,3-butadieryl]quinoline-4-carboxylic acid amides and salts thereof” (Institut Organicheskogo Sinteza Akademii Nauk Latviiskoi SSR, priority 1977, dated 1980)",
  "key": {"[1]": {"system": "Ehrlich ascitic tumor", "test": "Antitumor activity, life prolongation of mice with Ehrlich ascitic tumor", "type": "in vivo", "description": "The experiment was conducted as follows. 10^6 cells of Erlich tumuor were injected in common white mice intraperitoneally, the dose being given per each animal. […] Each dose of the preparation was tested in six mice. The control group included 18 mice. Giniquine solution was prepared by dissolving the substance ex tempore in distilled water or in a buffer. The effect of the preparation is shown on charts 1,2,3."}, "[2]": {"system": "cells of Ehrlich ascitic tumor", "test": "In vitro incorporation of labeled precursors into DNA, RNA and protein of Ehrlich ascitic tumor cells", "type": "cell-based, mice", "conditions": "for activity at 100 µM: 1 h, 1.10^-4 M", "description": "The effect of giniquine on biosynthesis of molecules in the in vitro tests was studied with suspensions of cells of Ehrlich ascitic tumor. The tests were conducted with common white mice of a mass of 18-20 g. Ascites was taken 7-8 days after the inoculation, dissolved with a cool Eagle medium (pH 7.4) containing 0.1% of heparin, and the cells were precipitated by centrifuging at 600 g. The cells were washed twice with the same medium, and a 10% suspension of the cells in the Eagle medium was prepared.\nThe effect of giniquine on biosynthesis of DNA, RNA and protein in the cells of Ehrlich ascitic tumor was assessed on the basis of incorporation of cells of specific labeled precursors into acid-insoluble fraction: 2-^14 C-thymidine, 2-^14 C-uridine and 2-^14 C-leucine, respectively.\nThe incubating medium contained, in a total volume of 2 ml, 100 mg of tumoral cells in the form of suspension, Eagle medium (pH 7.4), giniquine in a concentration of 1.10^-4 m and labeled precursors of nucleic acids and protein with a radioactivity corresponding to 0.1 μc. Control samples contained a corresponding volume of distilled water to replace the preparation solution.\nThe incubation was conducted in Warburg apparatus vessels at 37° C. for one hour. After the incubation, tumoral cells were fixed by adding cool 10% trichloracetic acid to the incubating medium (1:1). Concurrently a control sample without incubation was prepared, to which, before adding the cell suspension, was added 10% trichloracetic acid in the same ratio.\nThe precipitated cells were extracted for 20 minutes at 0° C. with 5% trichloroacetic acid. The samples were then filtered through millipore filters (HUFS, pore diameter 0.4 μ). The precipitate on the filter was washed twice with 5 ml of cool 5% trichloracetic acid and once with 5 ml of toluene. The filters were dried in the air and transferred into quartz flasks containing 10 ml of toluene scintillator. The radioactivity was determined by means of a liquid scintillation counter. The results were expressed in percent of the control.\nIt will be apparent from the Table that under the action of giniquine in a concentration of 1.10^-4 M the incorporation of labeled precursors of DNA, RNA and protein in acid-insoluble fraction of cells of Ehrlich ascitic tumor is disturbed compared to the control. […] The results of in vitro experiments study of the effect of 0.3 and 0.1% solutions of giniquine on the incorporation of 2-^14 C-thymidine in the acid-insoluble fraction (DNA) of Erlich cells are presented in Table 6."}, "[3]": {"system": "Tumor cells (Ehrlich ascitic tumor)", "test": "In vivo biosynthesis of DNA, RNA and protein in tumor cells", "set-up": "species or system mice", "conditions": "for Incorporation of 2-^14 C-leucine in protein / Incorporation of 2-^14 C-thymidine in DNA: intraperitoneal 100 mg/kg; for inhibition at 100 mg/kg: Mus musculus, Ehrlich", "description": "The influence of giniquine on biosynthetic processes in the in vivo tests was studied on common white mice of a mass of 25-35 g with Ehrlich ascitic tumor.\nThe mice were divided into two groups. The animals in the first group were given a single injection of the preparation in differing doses, and the animals in the second group were treated with distilled water. Three series of experiments were conducted. In the first series of tests (16 mice) the preparation was injected in a dose of 100 mg/kg ([…] dose), and the animals were decapitated one hour after the injection; in the second test series (16 mice) the animals were slaughtered 3 hours after the injection with other conditions being the same. In the third test series (35 mice) the influence of giniquine on plastic metabolism in tumor cells and normal tissues was studied 24 hours after the injection of a 0.33% solution of the preparation in a dose of 28 mg/kg (therapeutical dose).\nLabeled precursors of nucleic acids and protein were injected intraperitoneally one hour before the slaughter of the animals (50 μc/100 g). Ascitic fluid, as well as liver and spleen, mucous membrane of small intestine, brain, kidneys and lungs were taken for analysis. 10% suspension was prepared from tumor cells, and 10% homogenates were prepared from tissues in a physiological solution.\nTumor cells and tissue homogenates for precipitation of nucleic acids were treated with 57% perchloric acid (10:1). Acid-soluble fraction was removed by washing the precipitate twice with 5 ml of 5% perchloic acid with subsequent centrifuging at 2000 g. Nucleic acids were hydrolyzed by the Schneider method. Radioactivity of DNA and RNA fractions was measured by means of a liquid scintillation counter. The quantity of DNA and RNA was determined by spectrophotometry: the quantity of DNA was determined with diphenylamine, and RNA- with orcin.\nTo prepare protein hydrolysate, the suspension of tumoral cells and homogenates of normal tissues were treated with cool 10% trichloracetic acid (1:4), with subsequent centrifuging at 2000 g for ten minutes. The precipitate was washed twice with 5 ml of 10% trichloracetic acid. Lipoids were removed by a consecutive treatment of the precipitate with ethanol, saturated solution of sodium acetate, a mixture of ethanol and ether (3:1) and ether. To prepare protein hyhdrolysate, 4 ml of 0.3N KOH were added to the precipitate, and the mixture was placed into a thermostatic chamber at 37° C. for 60 minutes. The radioactivity was measured by means of a liquid scintillation counter. Protein was quantitatively determined by spectrophotometry using a microbiuret reaction."}, "[4]": {"conditions": "24 hours, intraperitoneal 28 mg/kg"}},
  "note": "Where two headings read alike, the source gives them in different places.",
  "data": [
    {"smiles": "CCN(CC)CCCC(C)NC(=O)c1cc(C=Cc2ccc([N+](=O)[O-])o2)nc2ccccc12", "note": "(stereo not drawn) [giniquine, 2-[2'-(5\"-nitrofuryl-2\")vinyl]quinoline-4-carboxylic acid (α-methyl-δ-diethylaminobutyl)amide triphosphate]", "values": [
      {"measurement": "dependence of antitumoral effect on solution concentration", "setting": "[1]; 0.1 to 0.35% solution", "value": "did not change within this range of concentrations"},
      {"measurement": "prolongation of life", "setting": "[1]; Chart 1, intraperitoneal injection", "value": 100, "unit": "%"},
      {"measurement": "prolongation of life", "setting": "[1]; Chart 1, intravenous injection", "value": 25, "unit": "%"},
      {"measurement": "antitumor effect, single versus five injections", "setting": "[1]; Chart 2, single intraperitoneal injection on first day vs five injections at 1,2,3,4,7 days", "value": "the same"},
      {"measurement": "prolongation of life", "setting": "[1]; Chart 3, intraperitoneal injection on 7th day", "value": 100, "unit": "%"},
      {"measurement": "prolongation of life", "setting": "[1]; Chart 3, intraperitoneal injection on 14th day", "value": 55, "unit": "%"},
      {"measurement": "prolongation of life", "setting": "[1]; Chart 3, intraperitoneal injection on first day after implantation", "value": 90, "unit": "%"},
      {"measurement": "prolongation of life", "setting": "[1]; Chart 3, intraperitoneal injection on third day", "value": 80, "unit": "%"},
      {"measurement": "Incorporation of 2-^14 C-thymidine in DNA in % of control", "setting": "[2]; 0.1% solution", "value": "2.4 % of control"},
      {"measurement": "suppression of biosynthesis of DNA in tumor cells (in words)", "setting": "[2]; 0.3% solution", "value": "practically complete suppression"},
      {"measurement": "activity at 100 µM", "setting": "[2]; Mus musculus, Ehrlich, read-out: Incorporation of 2-^14 C-leucine in percent of control", "value": 86, "unit": "%"},
      {"measurement": "activity at 100 µM", "setting": "[2]; Mus musculus, Ehrlich, read-out: Incorporation of 2-^14 C-thymidine in percent of control", "value": 61, "unit": "%"},
      {"measurement": "activity at 100 µM", "setting": "[2]; Mus musculus, Ehrlich, read-out: Incorporation of 2-^14 C-uridine in percent of control", "value": 52, "unit": "%"},
      {"measurement": "activity at 0.1 %", "setting": "[2]; Mus musculus, Ehrlich, 0.1% solution, read-out: Incorporation of 2-^14 C-thymidine in DNA in % of control", "value": 2.4, "unit": "%"},
      {"measurement": "activity at 0.3 %", "setting": "[2]; Mus musculus, Ehrlich, 0.3% solution, read-out: Incorporation of 2-^14 C-thymidine in DNA in % of control", "value": 0.7, "unit": "%"},
      {"measurement": "incorporation of labeled precursors in DNA, RNA and protein (in words)", "setting": "[2]; in vitro", "value": "decelerates the incorporation of labeled precursors in DNA, RNA and protein"},
      {"measurement": "Incorporation of 2-^14 C-leucine in protein", "setting": "[3]; 1 h", "value": "59.0 % of control"},
      {"measurement": "Incorporation of 2-^14 C-thymidine in DNA", "setting": "[3]; 1 h", "value": "43.0 % of control"},
      {"measurement": "Incorporation of 2-^14 C-leucine in protein", "setting": "[3]; 3 h", "value": "14.0 % of control"},
      {"measurement": "Incorporation of 2-^14 C-thymidine in DNA", "setting": "[3]; 3 h", "value": "30.0 % of control"},
      {"measurement": "suppression of incorporation of 2-^14 C-thymidine in DNA", "setting": "[3]; 24 hours, 28 mg/kg", "value": 82, "unit": "%"},
      {"measurement": "suppression of incorporation of 2-^14 C-uridine in RNA", "setting": "[3]; 24 hours, 28 mg/kg", "value": 42, "unit": "%"},
      {"measurement": "Incorporation of specific precursors, DNA", "setting": "[3]; [4]", "value": "18.0 % of control"},
      {"measurement": "Incorporation of specific precursors, Protein", "setting": "[3]; [4]", "value": "54.0 % of control"},
      {"measurement": "Incorporation of specific precursors, RNA", "setting": "[3]; [4]", "value": "58.0 % of control"},
      {"measurement": "inhibition at 100 mg/kg", "setting": "[3]; 1 h, one hour, 100 mg/kg, read-out: inhibition of biosynthesis of DNA", "value": 57, "unit": "%"},
      {"measurement": "inhibition at 100 mg/kg", "setting": "[3]; 3 h, three hours, 100 mg/kg, read-out: inhibition of biosynthesis of DNA", "value": 70, "unit": "%"},
      {"measurement": "inhibition at 100 mg/kg", "setting": "[3]; 3 h, three hours, 100 mg/kg, read-out: inhibition of biosynthesis of protein", "value": 86, "unit": "%"},
      {"measurement": "biosynthesis processes in tumor cells (in words)", "setting": "[3]; in vivo", "value": "the same effect on biosynthesis processes in tumor cells"},
      {"measurement": "suppression of biosynthesis of protein", "setting": "[3]; one hour, 100 mg/kg", "value": 41, "unit": "%"}
    ]}
  ]
}
